Columns and labels:
Format in all cases: in vivo, mouse
DIO mice = experiment: Food intake amount and body weight, 5 week-continuous oral administration, diet-induced obese (DIO) mice; conditions: (±)-baclofen 5 mg/kg/day, SKF97541 0.3 mg/kg/day, 3-APPA 5 mg/kg/day
Procedure: 5 week-old male C57BL/6N mice (body weight 17 to 20 g, CLEA Japan, Inc.) were purchased and individually fed in tip cages. To the mice, normal pellet diet (CE-2) was administered under free water intake and free food intake. A body weight and a food intake amount over 24 hours were measured every day from the start of feeding. On day 3 after the start of feeding, blood was taken from an orbit after 6 hour-fasting and a blood glucose level and a blood insulin concentration were measured. The mice were divided into a control group and a baclofen treated group (10 mice per each group) so that a body weight, a 24 hour-food intake amount, a blood glucose level, and a blood insulin concentration were equal, and diet induced-obesity (DIO) was started to be induced by administration of high fat diet (High Fat Diet 32, energy fat ratio 60%, CLEA Japan, Inc.) (DIO mice). At the same time as the start of administering the high fat diet, (±)-baclofen was dissolved in drinking water and 5 week-continuous oral administration was started in a dosage of 5 mg per 1 kg of a body weight in 1 day (5 mg/kg/day). A food intake amount and a body weight were measured over time during the 5 week-administration period. (±)-baclofen (5 mg/kg/day) was orally administered also to C57BL/6N mice (lean mice) that are non-obese mice to which normal diet was administered in the same manner as described above, and a food intake amount and a body weight were measured over time.
5 week-old male C57BL/6N mice (body weight 17 to 20 g, CLEA Japan, Inc.) were purchased and individually fed in tip cages. Normal pellet diet (CE-2) was administered to the mice under free water intake and free food intake. A body weight and a food intake amount over 24 hours were measured every day from the start of feeding. On day 3 after the start of feeding, blood was taken from an orbit after 6 hour-fasting and a blood glucose level and a blood insulin concentration were measured. The mice were divided into a control group, an SKF97541 treated group and a 3-APPA treated group (10 mice per each group) so that a body weight, a 24 hour-food intake amount, a blood glucose level, and a blood insulin concentration were equal, and diet induced-obesity (DIO) was started to be induced by administration of high fat diet (High Fat Diet 32, energy fat ratio 60%, CLEA Japan, Inc.) (DIO mice). At the same time as the start of administering the high fat diet, SKF97541 (0.3 mg/kg/day) or 3-APPA (5 mg/kg/day) was dissolved in drinking water and 5 week-continuous oral administration was started. A food intake amount and a body weight were measured over time during the 5 week-administration period. SKF97541 (0.3 mg/kg/day) or 3-APPA (5 mg/kg/day) was orally administered also to C57BL/6N mice (lean mice) to which normal diet was administered in the same manner as described above, and a food intake amount and a body weight were measured over time.

POMC mRNA = experiment: In situ hybridization, POMC mRNA in hypothalamic arcuate nucleus, DIO mice; conditions: (±)-baclofen oral 5 weeks
Procedure: A hypothalamic section with a thickness of 12 μm was prepared from the brain preserved at −80° C. by using a cryostat and stuck to a MAS coat slide and then in situ hybridization was performed. For a label of NPY mRNA and POMC mRNA probes, ^35S was used. The hypothalamic section was pretreated by using triethanolamine, ethanol and the like, and then 12 hour-hybridization was performed at 55° C. After the hybridization, the hypothalamic section was treated by washing with SSC, RNase, etc. After development to a film, the mRNA expression strength was assayed by using the NIH image.
(±)-baclofen was orally administered to DIO mice for 5 weeks according to the above method, and then the DIO mice were sacrificed. A brain was surgically removed, and changes in expression amounts of NPY mRNA and POMC mRNA in the hypothalamic arcuate nucleus were examined by using an in situ hybridization method.

db/^+m mice = experiment: Rectal temperature, db/+m mice; conditions: (±)-baclofen 2.7 mg/dl in drinking water for 5 weeks
Procedure: 5 week-old male C57BL/KsJ-db/^+m mice (db/^+m mice: body weight 19 to 23 g, Japan SLC, Inc.) were purchased and individually fed in tip cages. To the db/^+m mice, normal pellet diet (CE-2) was administered under free water intake and free food intake. A body weight and a food intake amount over 24 hours were measured every day from the start of feeding. On day 3 after the start of feeding, blood was taken from an orbit after 6 hour-fasting and a blood glucose level and a blood insulin concentration were measured. The db/^+m mice were divided into two groups (10 mice per each group) so that a body weight, a 24 hour-food intake amount, a blood glucose level, and a blood insulin concentration were equal, and defined to be a control group and a baclofen treated group. […] A food intake amount and a body weight of the db/^+m mice were measured over time, and a rectal temperature was measured 5 weeks after the start of the administration. […]
R-baclofen and S-baclofen were administered to db/db/mice and (±)-baclofen was administered to db/^+m mice respectively for 5 weeks, and rectal temperatures were then continuously measured for 3 days at 20 o'clock immediately before the dark period when feed intake was started in the mice. […] That is, the rectal temperatures were measured by using a digital thermistor (manufactured by NATSUME SEISAKUSHO CO., LTD.).

[1] = DIO mice (high fat diet), oral in drinking water 5 weeks
[2] = DIO mice, continued until 5 weeks

NCC(CC(=O)O)c1ccc(Cl)cc1 (racemic) [(±)-baclofen, (RS)-4-amino-3-(4-chlorophenyl)butanoic acid]
body weight increase (DIO mice; [1]): significantly suppressed | food intake amount (DIO mice; [1]): significantly suppressed | time after start of administration from which body weight increase suppression was significant (DIO mice; [2]): 1 week | time after start of administration from which food intake suppression was significant (DIO mice; [2]): 1 week | expression of POMC mRNA in the hypothalamic arcuate nucleus (POMC mRNA): significantly increased | rectal temperature (db/^+m mice): did not give a significant effect
